In EP0076430A1, “Compositions having antimicrobial activity” (MEDEA RESEARCH S.r.l., priority 1981, dated 1983):
In brackets after ≈: the same amount, converted by molar mass.

Assays:
B. subtilis = experiment: Bactericide activity at different contact times; type: cell-based; design: key: + = growth; - = no growth; conditions: 100 p.p.m.
Description: (§1) Different bacterial species isolated from patients are employed.
(§2) Compounds AB5 and AB6 are dissolved in ethanol (ethyl alcohol 95°, C. Erba) and all the subsequent dilutions performed in distilled water. The chlorhexidine is diluted from the commercial product already dissolved in distilled water.
(§3) It is assessed through Dinatech apparatus with "Inoculum 96" head.
(§4) Chemical compounds at established concentra tions are placed in amount of 1 ml in the con tainers, the bacterial inoculum is then added in amount of 0.1 ml (24 hrs culture) and at pre-established times (3,5,10,30,60 and 120 mi nutes), through the head, the mixture compound/ disinfectant agent is transferred in solid medium (agar-heart-brain medium). After incubation at 35°C for 24 hours, the reading is carried out. The tests are repeated in presence of human serum at the concentration of 10%.

Staph. aureus [1] = experiment: Bactericide activity at different contact times; type: cell-based; design: key: + = growth; - = no growth; conditions: 100 p.p.m.
Description: as §1, §2, §3, §4

Salmonella sp. [2] = experiment: Bactericide activity at different contact times; type: cell-based; design: key: + = growth; - = no growth; conditions: 100 p.p.m.
Description: as §1, §2, §3, §4

Pseudomonas aeruginosa [3] = experiment: Bactericide activity at different contact times; type: cell-based; design: key to Bactericide action (growth / no growth) / Bactericide activity (growth / no growth), serum interference test: + = growth; - = no growth
Description: as §1, §2, §3, §4

Indole-positive Proteus [4] = experiment: Bactericide activity at different contact times; type: cell-based; design: key to Bactericide action (growth / no growth): + = growth; - = no growth; conditions: 100 p.p.m.
Description: as §1, §2, §3, §4

E. coli = experiment: Bactericide activity at different contact times; type: cell-based; design: key to Bactericide action (growth / no growth): + = growth; - = no growth; conditions: 100 p.p.m.
Description: as §1, §2, §3, §4

Serratia marcescens [5] = experiment: Bactericide activity at different contact times; type: cell-based; design: key to Bactericide action (growth / no growth): + = growth; - = no growth; conditions: 100 p.p.m.
Description: as §1, §2, §3, §4

[6] = Toxicity, LD50 by intraperitoneal route; conditions: mouse, in vivo, ip, mice
E.coli = experiment: Minimum inhibitory concentration (MIC), broth dilution; type: cell-based; conditions: Escherichia coli, 24 h
Description: as §1, §2
(§5) The broth dilution is employed to assess MIC values for all strains. Sterile microtiter plates with U bottom with 96 wells are employed. 0.1 Ml of liquid medium (tryptose Roche broth) are put in each well, the plates are kept at -20° and, before use, at room temperature.
(§6) The disinfectant agent is put in the wells of the row 2 at a concentration of 4000 mcg/ml (real 2000 mcg/ml) and then with a 100 µl micro- pipette dilutions are performed from row 2 to row 11.
(§7) The row 1 is the control of the medium and the row 12 is the control for the fertility of the medium itself.
(§8) After having performed the dilutions, 0.01 ml of a 24 hrs bacterial broth culture (previously diluted at 10^-4 for Gram-negative strains and 10-2 for Gram-positive ones) are placed in all wells, from the rows 2 to 12. After the inoculation, the plate is hermetical ly sealed with adhesive transparent band and an hole is done with a needle. The plates are kept at 35° for 24 hours and a macroscopic reading is carried out; in case of non uniform reading, taking place only for chlorhexidine, the cultures from the wells are plated on agar-heart-brain medium (Sclavo) through Dinatech apparatus (head "Inoculum 96") and the reading of the growth is carried out in the following 24 hours.

Indole-positive Proteus [7] = experiment: as above; type: cell-based; conditions: 24 h
Description: as §1, §2, §5, §6, §7, §8

Bacillaceae = experiment: as above; type: cell-based; conditions: 24 h; strain 1722
Description: as §1, §2, §5, §6, §7, §8

Staph. aureus [8] = experiment: as above; type: cell-based; conditions: Staphylococcus aureus, 24 h; strain 2672
Description: as §1, §2, §5, §6, §7, §8

Serratia marcescens [9] = experiment: as above; type: cell-based; conditions: 24 h, strain 1814
Description: as §1, §2, §5, §6, §7, §8

Enterobacter = experiment: as above; type: cell-based; conditions: 24 h, strain 2643
Description: as §1, §2, §5, §6, §7, §8

Salmonella sp. [10] = experiment: as above; type: cell-based; conditions: 24 h, strain 2482
Description: as §1, §2, §5, §6, §7, §8

Pseudomonas aeruginosa [11] = experiment: as above; type: cell-based; conditions: 24 h
Description: as §1, §2, §5, §6, §7, §8

NC(=NI)c1ccccc1 [AB6]
Bactericide action (growth / no growth) (B. subtilis; contact time 3 min): -
Bactericide action (growth / no growth) (B. subtilis; contact time 5 min): -
Bactericide action (growth / no growth) (B. subtilis; contact time 10 min): -
Bactericide action (growth / no growth) (B. subtilis; contact time 30 min): -
Bactericide action (growth / no growth) (B. subtilis; contact time 60 min): -
Bactericide action (growth / no growth) (B. subtilis; contact time 120 min): -
Bactericide action (growth / no growth) (Staph. aureus [1]; contact time 3 min): -
Bactericide action (growth / no growth) (Staph. aureus [1]; contact time 5 min): -
Bactericide action (growth / no growth) (Staph. aureus [1]; contact time 10 min): -
Bactericide action (growth / no growth) (Staph. aureus [1]; contact time 30 min): -
Bactericide action (growth / no growth) (Staph. aureus [1]; contact time 60 min): -
Bactericide action (growth / no growth) (Staph. aureus [1]; contact time 120 min): -
Bactericide action (growth / no growth) (Salmonella sp. [2]; contact time 3 min): -
Bactericide action (growth / no growth) (Salmonella sp. [2]; contact time 5 min): -
Bactericide action (growth / no growth) (Salmonella sp. [2]; contact time 10 min): -
Bactericide action (growth / no growth) (Salmonella sp. [2]; contact time 30 min): -
Bactericide action (growth / no growth) (Salmonella sp. [2]; contact time 60 min): -
Bactericide action (growth / no growth) (Salmonella sp. [2]; contact time 120 min): -
contact time for total bactericide activity (Pseudomonas aeruginosa [3]; 100 p.p.m.): ≤ 3 min
Bactericide action (growth / no growth) (Pseudomonas aeruginosa [3]; contact time 3 min, 100 p.p.m.): -
Bactericide activity (growth / no growth), serum interference test (Pseudomonas aeruginosa [3]; contact time 3 min, with human serum (10%)): +
Bactericide activity (growth / no growth), serum interference test (Pseudomonas aeruginosa [3]; contact time 3 min, without serum): -
Bactericide action (growth / no growth) (Pseudomonas aeruginosa [3]; contact time 5 min, 100 p.p.m.): -
Bactericide activity (growth / no growth), serum interference test (Pseudomonas aeruginosa [3]; contact time 5 min, with human serum (10%)): +
Bactericide activity (growth / no growth), serum interference test (Pseudomonas aeruginosa [3]; contact time 5 min, without serum): -
Bactericide action (growth / no growth) (Pseudomonas aeruginosa [3]; contact time 10 min, 100 p.p.m.): -
Bactericide activity (growth / no growth), serum interference test (Pseudomonas aeruginosa [3]; contact time 10 min, with human serum (10%)): +
Bactericide activity (growth / no growth), serum interference test (Pseudomonas aeruginosa [3]; contact time 10 min, without serum): -
Bactericide action (growth / no growth) (Pseudomonas aeruginosa [3]; contact time 30 min, 100 p.p.m.): -
Bactericide activity (growth / no growth), serum interference test (Pseudomonas aeruginosa [3]; contact time 30 min, with human serum (10%)): +
Bactericide activity (growth / no growth), serum interference test (Pseudomonas aeruginosa [3]; contact time 30 min, without serum): -
Bactericide action (growth / no growth) (Pseudomonas aeruginosa [3]; contact time 60 min, 100 p.p.m.): -
Bactericide activity (growth / no growth), serum interference test (Pseudomonas aeruginosa [3]; contact time 60 min, with human serum (10%)): -
Bactericide activity (growth / no growth), serum interference test (Pseudomonas aeruginosa [3]; contact time 60 min, without serum): -
Bactericide action (growth / no growth) (Pseudomonas aeruginosa [3]; contact time 120 min, 100 p.p.m.): -
Bactericide activity (growth / no growth), serum interference test (Pseudomonas aeruginosa [3]; contact time 120 min, with human serum (10%)): -
Bactericide activity (growth / no growth), serum interference test (Pseudomonas aeruginosa [3]; contact time 120 min, without serum): -
contact time for total bactericide activity (Indole-positive Proteus [4]): ≤ 3 min
Bactericide action (growth / no growth) (Indole-positive Proteus [4]; contact time 3 min): -
Bactericide action (growth / no growth) (Indole-positive Proteus [4]; contact time 5 min): -
Bactericide action (growth / no growth) (Indole-positive Proteus [4]; contact time 10 min): -
Bactericide action (growth / no growth) (Indole-positive Proteus [4]; contact time 30 min): -
Bactericide action (growth / no growth) (Indole-positive Proteus [4]; contact time 60 min): -
Bactericide action (growth / no growth) (Indole-positive Proteus [4]; contact time 120 min): -
Bactericide action (growth / no growth) (E. coli; contact time 3 min): +
Bactericide action (growth / no growth) (E. coli; contact time 5 min): +
Bactericide action (growth / no growth) (E. coli; contact time 10 min): -
Bactericide action (growth / no growth) (E. coli; contact time 30 min): -
Bactericide action (growth / no growth) (E. coli; contact time 60 min): -
Bactericide action (growth / no growth) (E. coli; contact time 120 min): -
longest time in which it is active (Serratia marcescens [5]): 30 min
Bactericide action (growth / no growth) (Serratia marcescens [5]; contact time 3 min): +
Bactericide action (growth / no growth) (Serratia marcescens [5]; contact time 5 min): +
Bactericide action (growth / no growth) (Serratia marcescens [5]; contact time 10 min): +
Bactericide action (growth / no growth) (Serratia marcescens [5]; contact time 30 min): -
Bactericide action (growth / no growth) (Serratia marcescens [5]; contact time 60 min): -
Bactericide action (growth / no growth) (Serratia marcescens [5]; contact time 120 min): -
LD50 [6]: 85 mg/kg
MIC (E.coli; strain 2094): > 1000 µg/mL
MIC (E.coli; strain 2096): > 1000 µg/mL
MIC (E.coli; strain 2117): > 1000 µg/mL
MIC (E.coli; strain 2456): > 1000 µg/mL
MIC (E.coli; strain 2568): 2000 µg/mL (≈ 8.13 mM)
MIC (Indole-positive Proteus [7]; strain 2075): > 1000 µg/mL
MIC (Indole-positive Proteus [7]; strain 2083): > 1000 µg/mL
MIC (Indole-positive Proteus [7]; strain 2105): > 1000 µg/mL
MIC (Indole-positive Proteus [7]; strain 2410): > 2000 µg/mL
MIC (Indole-positive Proteus [7]; strain 2447): > 2000 µg/mL
MIC (Indole-positive Proteus [7]; strain 2674): 1000 µg/mL (≈ 4.06 mM)
MIC (Bacillaceae): 31.2 µg/mL (≈ 0.127 mM)
MIC (Staph. aureus [8]): 1000 µg/mL (≈ 4.06 mM)
MIC (Serratia marcescens [9]): 125 µg/mL (≈ 0.508 mM)
MIC (Enterobacter): 1000 µg/mL (≈ 4.06 mM)
MIC (Salmonella sp. [10]): > 1000 µg/mL
MIC (Pseudomonas aeruginosa [11]; strain 2084): > 1000 µg/mL
MIC (Pseudomonas aeruginosa [11]; strain 2458): > 1000 µg/mL
MIC (Pseudomonas aeruginosa [11]; strain 2488): 1000 µg/mL (≈ 4.06 mM)
MIC (Pseudomonas aeruginosa [11]; strain 2508): 1000 µg/mL (≈ 4.06 mM)
MIC (Pseudomonas aeruginosa [11]; strain 2509): 1000 µg/mL (≈ 4.06 mM)
MIC (Pseudomonas aeruginosa [11]; strain 2670): 1000 µg/mL (≈ 4.06 mM)
